US7767676B2, “Dihydro-1,3,5-triazine amine derivatives and their therapeutic uses” (Merck Sante, priority 2000, dated 2010)
Where a name gives a salt, the structure may show the parent alone. Read-outs that look alike come from different tables or passages of the source.

Tests used:
[1] = test system: non-insulin-dependent diabetes induced in rats by Streptozotocin; experiment: Antidiabetic activity in the Nostz rat (non-insulin-dependent diabetes induced by neonatal streptozotocin), glycaemia after oral treatment; type: in vivo; settings: diabetic rats, blood 2 h after last administration; for change in vivo at 20 mg/kg: 20 mg/kg/D oral; for change in vivo at 200 mg/kg: 200 mg/kg/D oral
Method: Study of the Antidiabetic Activity in the Nostz Rat
The antidiabetic activity of the compounds of formula (I) administered orally was determined on an experimental model of non-insulin-dependent diabetes induced in rats by Streptozotocin.
The non-insulin-dependent diabetes model is obtained in rats by neonatal injection (on the day of birth) of streptozotocin.
The diabetic rats used were 8 weeks old. The animals were kept, from the day of their birth to the day of the experiment, in an animal house at a controlled temperature of 21 to 22° C. and subjected to a fixed cycle of light (from 7 am to 7 pm) and darkness (from 7 pm to 7 am). Their diet consisted of a maintenance diet, water and food were provided “ab libitum”, with the exception of the 2 hours of fasting preceding the tests when the food is withdrawn (postabsorptive state).
The rats were treated by the oral route for one (D1) or four (D4) days with the product to be tested. Two hours after the last administration of the product and 30 minutes after anaesthetizing the animals with sodium pentobarbital (Nembutal a), 300 μl of blood sample are collected from the end of the tail.
By way of example, results obtained are assembled in Table III.

[2] = 24 h, 1 day of treatment, read-out: percentage variation of glycaemia at D1 relative to D0
[3] = 96 h, 4 days of treatment, read-out: percentage variation of glycaemia at D4 relative to D0

SMILES | melting point [°C] | change in vivo at 20 mg/kg [1, 2] [%] | change in vivo at 200 mg/kg [1, 2] [%] | change in vivo at 20 mg/kg [1, 3] [%] | change in vivo at 200 mg/kg [1, 3] [%]
CC(C)C1N=C(N)NC(N(C)C)=N1 (stereo not shown) [Compound 44] | – | -7 | -22 | -6 | -25
CC(C)CCCC(C)[C@H]1CCC2C3CCC4CC5(CC[C@]4(C)C3CC[C@@]21C)N=C(N)NC(N(C)C)=N5 (stereo partly shown) [Compound 19] | – | -10 | -4 | -6 | -14
CN(C)C1=NC(C(C)(C)C)N=C(N)N1 (stereo not shown) [Compound 42] | – | -5 | -26 | -4 | -17
CCCC1N=C(N)NC(N(C)C)=N1 (stereo not shown) [Compound 32] | – | 2 | -22 | 0 | -18
CCNC1=NC2(CCCCC2)N=C(N(C)C)N1 (as salt: HCl) [Compound 23] | 248 to 250 | – | – | – | –
CCC1N=C(N)NC(N(C)C)=N1 (stereo not shown) (as salt: HCl) [Compound 1, 2-amino-3,6-dihydro-4-dimethylamino-6-ethyl-1,3,5-triazine hydrochloride] | 218 to 220 | – | – | – | –
CN(C)C1=NC(C)(C)N=C(N2CCCC2)N1 (as salt: HCl) [Compound 17] | > 260 | – | – | – | –
C=CCNC1=NC(C)(C)N=C(N(C)C)N1 (as salt: HCl) [Compound 8] | 124 to 126 | – | – | – | –
CC1N=C(N(C)C)NC(N(C)C)=N1 [Compound 2, 2,4-bisdimethylamino-3,6-dihydro-6-methyl-1,3,5-triazine hydrochloride] | – | -11 | -12 | -10 | -12
CC(CCC(=O)O)[C@H]1CCC2C3C(C[C@H](O)[C@@]21C)[C@@]1(C)CCC2(CC1C[C@H]3O)N=C(N)NC(N(C)C)=N2 (stereo partly shown) [Compound 25] | – | -4 | -7 | -11 | -6
CN(C)C1=NC(C)(C)N=C(N(C)C)N1 [Compound 15] | – | -8 | -4 | -9 | -5
CN(C)C1=NC2(CCC(OCc3ccccc3)CC2)N=C(N)N1 (stereo not shown) [Compound 27] | – | -14 | -12 | -9 | -13
CCNC1=NC(C)(C)N=C(N(C)C)N1 (as salt: fumarate) [Compound 14] | 172 to 174 | – | – | – | –
C=CCNC1=NC(C)N=C(N(C)C)N1 (stereo not shown) [Compound 26] | – | -6 | -14 | -11 | -9
CN(C)C1=NC2(CCCC2)N=C(N)N1 [Compound 31] | – | -5 | -3 | -11 | -15
CC1N=C(N(C)C)NC(N2CCCC2)=N1 (stereo not shown) [Compound 21] | – | -7 | -21 | -2 | -24
CN(C)C1=NC(c2ccc(O)cc2)N=C(N)N1 (stereo not shown) (as salt: HCl) [Compound 12] | 251 to 253 | – | – | – | –

SMILES | melting point [°C] | change in vivo at 20 mg/kg [1, 2] [%] | change in vivo at 200 mg/kg [1, 2] [%] | change in vivo at 20 mg/kg [1, 3] [%] | change in vivo at 200 mg/kg [1, 3] [%]
CN(C)C1=NC(C2CC=CCC2)N=C(N)N1 (stereo not shown) (as salt: toluenesulphonate) [Compound 45] | 217 to 219 | – | – | – | –
CN(C)C1=NC(C2CCCCC2)N=C(N)N1 (stereo not shown) (as salt: toluenesulphonate) [Compound 34] | 201 to 203 | – | – | – | –
CN(C)C1=NC(C)(C)N=C(N)N1 [Compound 3] | – | -10 | -18 | -8 | -22
CC(CCC(=O)O)[C@H]1CCC2C3CCC4CC5(CC[C@]4(C)C3CC[C@@]21C)N=C(N)NC(N(C)C)=N5 (stereo partly shown) (as salt: HCl) | > 260 | – | – | – | –
CN(C)C1=NC(c2ccco2)N=C(N)N1 (stereo not shown) (as salt: HCl) [Compound 40] | 225 to 227 | – | – | – | –
CN(C)C1=NC2(CCCCC2)N=C(N)N1 [Compound 4] | – | 0 | -20 | -1 | -10
CC(CCC(=O)O)[C@H]1CCC2C3C(C[C@H](O)[C@@]21C)[C@@]1(C)CCC2(CC1C[C@H]3O)N=C(N)NC(N(C)C)=N2 (stereo partly shown) (as salt: HCl) [Compound 25] | > 260 | – | – | – | –
CC(C)CCCC(C)[C@H]1CCC2C3CCC4CC5(CC[C@]4(C)C3CC[C@@]21C)N=C(N)NC(N(C)C)=N5 (stereo partly shown) (as salt: HCl) [Compound 19] | > 260 | – | – | – | –
CN1CCC2(CC1)N=C(N)NC(N(C)C)=N2 (as salt: HCl) [Compound 39] | > 260 | – | – | – | –
CN(C)C1=NC(Cc2ccccc2)N=C(N)N1 (stereo not shown) (as salt: toluenesulphonate) [Compound 37] | 159 to 161 | – | – | – | –
CC1N=C(N(C)C)NC(N(C)C)=N1 (as salt: HCl) [Compound 2, 2,4-bisdimethylamino-3,6-dihydro-6-methyl-1,3,5-triazine hydrochloride] | 200 to 202 | – | – | – | –
CN(C)C1=NC2(CCC(O)CC2)N=C(N)N1 (stereo not shown) [Compound 28] | – | -4 | -4 | -1 | -13
CN(C)C1=NC(C)(C)N=C(N2CCCC2)N1 [Compound 17] | – | -12 | -8 | -8 | -14
NC1=NC2(CCCCC2)N=C(NCCc2ccccc2)N1 (as salt: salt) [Compound 20] | 170 to 180 | – | – | – | –
CN(C)C1=NC(C)(CCCO)N=C(N)N1 (stereo not shown) [Compound 7] | – | -8 | -10 | -11 | -16
CN1CCC2(CC1)N=C(N)NC(N(C)C)=N2 [Compound 39] | – | -6 | -4 | -6 | -7
CNC1=NC2(CCCCC2)N=C(N(C)C)N1 [Compound 22] | – | -23 | -13 | -16 | 0

More lines, main results first:

melting point [°C] | SMILES | change in vivo at 20 mg/kg [1, 2] [%] | change in vivo at 200 mg/kg [1, 2] [%] | change in vivo at 20 mg/kg [1, 3] [%] | change in vivo at 200 mg/kg [1, 3] [%]
> 250 | CN(C)C1=NC2(CCC(O)CC2)N=C(N)N1 (stereo not shown) (as salt: HCl) [Compound 28] | – | – | – | –
91 to 92 | C=CCNC1=NC(C)N=C(N(C)C)N1 (stereo not shown) (as salt: HCl) [Compound 26] | – | – | – | –
> 140 | CC1N=C(N(C)C)NC(N2CCCC2)=N1 (stereo not shown) (as salt: salt) [Compound 21] | – | – | – | –
> 260 | CN(C)C1=NC(C(C)(C)C)N=C(N)N1 (stereo not shown) (as salt: HCl) [Compound 42] | – | – | – | –
250 to 252 | CN(C)C1=NC(C)(C)N=C(N(C)C)N1 (as salt: HCl) [Compound 15] | – | – | – | –
150 to 152 | CN(C)C1=NC(C)(CCCO)N=C(N)N1 (stereo not shown) (as salt: HCl) [Compound 7] | – | – | – | –
221 to 223 | COc1ccc(C2N=C(N)NC(N(C)C)=N2)cc1 (stereo not shown) (as salt: HCl) [Compound 11] | – | – | – | –
138 to 140 | CN(C)C1=NC(C)(CCCO)N=C(N)N1 (stereo not shown) [Compound 6] | – | – | – | –
140 to 144 | CCC1(CC)N=C(N)NC(N(C)C)=N1 (as salt: salt) [Compound 30] | – | – | – | –
> 260 | CNC1=NC2(CCCCC2)N=C(N(C)C)N1 (as salt: HCl) [Compound 22] | – | – | – | –
> 260 | CN(C)C1=NC2(CCOCC2)N=C(N)N1 (as salt: HCl) [Compound 38] | – | – | – | –
239 to 241 | CN(C)C1=NC(c2ccccc2)N=C(N)N1 (stereo not shown) (as salt: HCl) [Compound 10] | – | – | – | –
194 to 196 | CN(C)C1=NC(COc2ccccc2)N=C(N)N1 (stereo not shown) (as salt: toluenesulphonate) [Compound 41] | – | – | – | –
251 to 253 | CN(C)C1=NC(C(F)(F)F)N=C(N)N1 (stereo not shown) (as salt: toluenesulphonate) [Compound 36] | – | – | – | –
207 to 209 | CN(C)C1=NC2(CCCC2)N=C(N)N1 (as salt: HCl) [Compound 31] | – | – | – | –
243 to 245 | CN(C)C1=NC2(CCCCC2)N=C(N)N1 (as salt: HCl) [Compound 4] | – | – | – | –
149 to 151 | CC(C)NC1=NC(C)(C)N=C(N(C)C)N1 (as salt: HCl) [Compound 9] | – | – | – | –
> 260 | CN(C)C1=NC2(CCC(OCc3ccccc3)CC2)N=C(N)N1 (stereo not shown) (as salt: HCl) [Compound 27] | – | – | – | –
